# Laboratory results reported in patent US9580330B2, “Anhydrous, amorphous and porous magnesium carbonates and methods of production thereof” (DISRUPTIVE MATERIALS AB, priority 2012, dated 2017).
# Legend:
# [1] = Thermal gravimetric analysis (TGA) of Example 28 samples; type: physicochemical; settings: air flow, 3 K min^−1
# Method: Thermal gravimetric analysis (TGA) was carried out on a Mettler Toledo, model TGA/SDTA851e, under an air flow in an inert alumina cup. The samples were heated from room temperature to 600° C. with a heating rate of 3 K min^−1.
# [2] = Drug release measurement, USP-2 dissolution bath; type: physicochemical; settings: phosphate buffer pH 6.8, 37° C., 50 rpm, 17.5 mg ibuprofen in 500 mL
# Method: Drug Release Measurement: The release of ibuprofen was carried out in a USP-2 dissolution bath (Sotax AT7 Smart, Sotax AG, Switzerland) equipped with 1000 mL vessels (37° C., 50 rpm). Samples with a total drug content of 17.5 mg ibuprofen were placed in vessels containing 500 mL phosphate buffer (pH=6.8). […] Aliquots of 3 mL were withdrawn from each vessel at regular intervals for 125 min and the drug concentration in the liquid samples was analysed using UV/vis absorbance spectroscopy (1650PC, Shimadzu Corporation, Kyoto, Japan).
structure (smiles),measurement,setting,value
"CC(C)Cc1ccc(C(C)C(=O)O)cc1 (centres unmarked) [free ibuprofen, ibuprofen]",decomposition temperature of ibuprofen,[1],about 200 °C
same,time until about 50% of the ibuprofen is dissolved,[2],about 30 minutes
